Consider 19 compounds from patent US20100069341A1, “TETRAHYDRO-PYRANOPYRAZOLE CANNABINOID MODULATORS” (priority 2005, published 2010).

pIC50: −log10 of the molar value. Read-outs that look alike come from different tables or passages of the source.

One may read the inhibition as the percentage by which the read-out fell short of the control. What is called pIC50 is the IC50 on a negative log10 scale, so that one unit is a factor of ten. Low readings indicate a large IC50, high ones a small IC50.

One test deals with T1, Cannabinoid CB1 Receptor (Homo sapiens, UniProt P21554).
T1 construct: expressed in transfected cells; semi-purified membrane pellet
T1 sequence (P21554 whole entry): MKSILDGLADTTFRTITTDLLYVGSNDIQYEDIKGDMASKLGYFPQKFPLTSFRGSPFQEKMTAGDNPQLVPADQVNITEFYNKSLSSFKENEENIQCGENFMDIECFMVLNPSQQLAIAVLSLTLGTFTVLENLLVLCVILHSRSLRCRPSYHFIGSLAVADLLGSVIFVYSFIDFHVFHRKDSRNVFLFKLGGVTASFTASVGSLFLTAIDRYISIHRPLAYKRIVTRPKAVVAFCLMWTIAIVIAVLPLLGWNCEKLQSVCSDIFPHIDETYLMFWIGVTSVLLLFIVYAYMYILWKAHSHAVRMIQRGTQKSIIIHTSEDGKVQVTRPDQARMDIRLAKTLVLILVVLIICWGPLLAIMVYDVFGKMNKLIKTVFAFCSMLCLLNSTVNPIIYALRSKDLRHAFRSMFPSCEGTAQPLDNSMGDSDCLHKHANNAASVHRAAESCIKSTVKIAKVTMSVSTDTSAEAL
Briefly: Binding assay, cannabinoid CB1 receptor ([3H]-CP-55,940 displacement, SK-N-MC cell membranes). The following applies: for inhibition at 0.2 µM: read-out: Cannabinoid CB1 Receptor Binding, percent inhibition. How it is done:
(§1) Binding Assay for CB1 or CB2 Agonists or Inverse Agonists
(§2) The human CB1 and CB2 receptors were stably expressed in SK-N-MC cells transfected with pcDNA3 CB-1 (human) or pcDNA3 CB-2 (human). The cells were grown in T-180 cell culture flasks under standard cell culture conditions at 37° C. in a 5% CO2 atmosphere. The cells were harvested by trysinization and homogenized in a homogenization buffer (10 mM Tris, 0.2 mM MgCl2, 5 mM KCl, with protease inhibitors aprotinin, leupeptin, pepstatin A and bacitracin) and centrifuged (2000 g). The supernatant was then centrifuged in 2M sucrose (31,300 g) to produce a semi-purified membrane pellet. The pellet was resuspended in homogenization and store at −80° C.
On the day of the assay, the pellet was thawed on ice and diluted in assay buffer (50 mM Tris-HCl, 5 mM MgCl2, 2.5 mM EDTA, 0.5 mg/mL fatty acid free bovine serum albumin, pH 7.5). […] The plate was covered and incubated for 90 minutes at 30° C. The contents were then aspirated onto a Packard Unifilter GF/C filter bottom plate prewet with 0.5% polyethyleneimine. The wells of the polypropylene plate were rinsed and aspirated seven times with a 0.9% saline-0.5% Tween 20 solution. The Unifilter plate was dried, a scintillation cocktail was added to each well and the counts representing binding were quantitated in a TopCount scintillation counter.
For compounds tested, an IC50 binding value was obtained from percent inhibition studies in which various test concentrations were used. The binding value (in μM) was calculated by linear regression.

The next test addresses T2, Cannabinoid CB2 Receptor (Homo sapiens, UniProt P34972).
T2 construct: expressed in transfected cells; semi-purified membrane pellet
Nature of the test: Binding assay, cannabinoid CB2 receptor ([3H]-CP-55,940 displacement, SK-N-MC cell membranes). The settings on record: test concentration of 0.2 μM; human CB2 in SK-N-MC membranes; read-out: Cannabinoid CB2 Receptor Binding, percent inhibition. The method, then: as §1, §2
On the day of the assay, the pellet was thawed on ice and diluted in assay buffer (50 mM Tris-HCl, 5 mM MgCl2, 2.5 mM EDTA, 0.5 mg/mL fatty acid free bovine serum albumin, pH 7.5). The diluted membrane was added with buffer, test compound or standard and the radioligand [H]^3+-CP-55,940 (0.2 nM) to the wells of a 96-well polypropylene plate. Non-specific binding was measured in wells containing 10 uM WIN 55,212. The plate was covered and incubated for 90 minutes at 30° C. The contents were then aspirated onto a Packard Unifilter GF/C filter bottom plate prewet with 0.5% polyethyleneimine. The wells of the polypropylene plate were rinsed and aspirated seven times with a 0.9% saline-0.5% Tween 20 solution. The Unifilter plate was dried, a scintillation cocktail was added to each well and the counts representing binding were quantitated in a TopCount scintillation counter.
For compounds tested, an IC50 binding value was obtained from percent inhibition studies in which various test concentrations were used. The binding value (in μM) was calculated by linear regression. For compounds without an IC50 binding value, the percent inhibition (in %) was obtained at a test concentration of 0.2 μM.

Setting [1] is: test concentration of 0.2 μM, human CB1 in SK-N-MC membranes.

T2 sequence (P34972 whole entry): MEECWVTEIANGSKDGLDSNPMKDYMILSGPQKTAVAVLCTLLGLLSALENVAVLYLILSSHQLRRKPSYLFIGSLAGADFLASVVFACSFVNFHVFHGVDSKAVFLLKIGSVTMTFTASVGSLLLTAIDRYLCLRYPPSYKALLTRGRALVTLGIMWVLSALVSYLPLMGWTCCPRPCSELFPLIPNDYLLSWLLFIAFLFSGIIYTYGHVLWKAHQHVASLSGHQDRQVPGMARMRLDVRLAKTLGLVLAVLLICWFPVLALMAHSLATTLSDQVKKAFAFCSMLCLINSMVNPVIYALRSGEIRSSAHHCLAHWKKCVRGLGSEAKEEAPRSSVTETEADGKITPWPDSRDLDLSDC

Consider `O=C(c1nn(-c2ccc(Cl)cc2Cl)c2c1COC/C2=C\c1ccc(F)cc1)N1CCC[C@@H]1CO` [Cpd 20, (7Z)-[1-(2,4-dichloro-phenyl)-7-(4-fluoro-benzylidene)-1,4,6,7-tetrahydro-pyrano[4,3-c]pyrazol-3-yl]-[(2R)-2-hydroxymethyl-pyrrolidin-1-yl]-methanone], for which the inhibition at 0.2 µM on Cannabinoid CB1 Receptor (setting [1]) turned out to be 27%; on Cannabinoid CB2 Receptor it was 18%.

`O=C(c1nn(-c2ccc(Cl)cc2Cl)c2c1COC/C2=C\c1ccc(F)cc1)N1CCC[C@H]1CO` [Cpd 21, (7Z)-[1-(2,4-dichloro-phenyl)-7-(4-fluoro-benzylidene)-1,4,6,7-tetrahydro-pyrano[4,3-c]pyrazol-3-yl]-[(2S)-2-hydroxymethyl-pyrrolidin-1-yl]-methanone]: the inhibition at 0.2 µM was 59% on Cannabinoid CB1 Receptor (setting [1]) and 15% on Cannabinoid CB2 Receptor.

Consider `O=C(NN1CC2CCCC2C1)c1nn(-c2ccc(Cl)cc2Cl)c2c1COCC2Cc1ccc(F)cc1` (stereo not drawn) [Cpd 22, 1-(2,4-dichloro-phenyl)-7-(4-fluoro-benzyl)-1,4,6,7-tetrahydro-pyrano[4,3-c]pyrazole-3-carboxylic acid (hexahydro-cyclopenta[c]pyrrol-2-yl)-amide], for which the inhibition at 0.2 µM worked out at 66% on Cannabinoid CB1 Receptor (setting [1]) and 18% at Cannabinoid CB2 Receptor.

As for `O=C(NN1CCCCC1)c1nn(-c2ccc(Cl)cc2Cl)c2c1COCC2Cc1ccc(F)cc1` (stereo not drawn) [Cpd 23, 1-(2,4-dichloro-phenyl)-7-(4-fluoro-benzyl)-1,4,6,7-tetrahydro-pyrano[4,3-c]pyrazole-3-carboxylic acid piperidin-1-ylamide], the values for the inhibition at 0.2 µM on Cannabinoid CB1 Receptor (setting [1]) and at Cannabinoid CB2 Receptor were 59% and 19%, respectively.

On to `C[C@@H](NC(=O)c1nn(-c2ccc(Cl)cc2Cl)c2c1COCC2Cc1ccc(F)cc1)c1ccccc1` (stereo partly drawn) [Cpd 24, 1-(2,4-dichloro-phenyl)-7-(4-fluoro-benzyl)-1,4,6,7-tetrahydro-pyrano[4,3-c]pyrazole-3-carboxylic acid [(R)-1-phenyl-ethyl]-amide], for which the figures for the inhibition at 0.2 µM on Cannabinoid CB1 Receptor (setting [1]) and at Cannabinoid CB2 Receptor were 66% and 13%, respectively.

Consider `CN1CCN(NC(=O)c2nn(-c3ccc(Cl)cc3Cl)c3c2COCC3Cc2ccc(F)cc2)CC1` (stereo not drawn) [Cpd 26, 1-(2,4-dichloro-phenyl)-7-(4-fluoro-benzyl)-1,4,6,7-tetrahydro-pyrano[4,3-c]pyrazole-3-carboxylic acid (4-methyl-piperazin-1-yl)-amide], for which the inhibition at 0.2 µM on Cannabinoid CB1 Receptor (setting [1]) came to 8%; on Cannabinoid CB2 Receptor it was 13%.

The compound `CC1CCCC(C)N1NC(=O)c1nn(-c2ccc(Cl)cc2Cl)c2c1COC/C2=C\c1ccc(F)cc1` (stereo not drawn) [Cpd 27, (7Z)-1-(2,4-dichloro-phenyl)-7-(4-fluoro-benzylidene)-1,4,6,7-tetrahydro-pyrano[4,3-c]pyrazole-3-carboxylic acid (2,6-dimethyl-piperidin-1-yl)-amide] had a pIC50 on Cannabinoid CB1 Receptor of 7.40. The inhibition at 0.2 µM on Cannabinoid CB1 Receptor (setting [1]) turned out to be 77%; at Cannabinoid CB2 Receptor, 20%.

With `O=C(NNC1CCCCC1)c1nn(-c2ccc(Cl)cc2Cl)c2c1COC/C2=C\c1ccc(F)cc1` [Cpd 29, (7Z)-1-(2,4-dichloro-phenyl)-7-(4-fluoro-benzylidene)-1,4,6,7-tetrahydro-pyrano[4,3-c]pyrazole-3-carboxylic acid N′-cyclohexyl-hydrazide], the inhibition at 0.2 µM came to 52% at Cannabinoid CB1 Receptor (setting [1]) and 0% at Cannabinoid CB2 Receptor.

`CN1CCN(NC(=O)c2nn(-c3ccc(Cl)cc3Cl)c3c2COC/C3=C\c2ccc(F)cc2)CC1` [Cpd 30, (7Z)-1-(2,4-dichloro-phenyl)-7-(4-fluoro-benzylidene)-1,4,6,7-tetrahydro-pyrano[4,3-c]pyrazole-3-carboxylic acid (4-methyl-piperazin-1-yl)-amide]: the inhibition at 0.2 µM on Cannabinoid CB1 Receptor (setting [1]) worked out at 3%; at Cannabinoid CB2 Receptor, 0%.

Take `O=C(NN1CCN(CCO)CC1)c1nn(-c2ccc(Cl)cc2Cl)c2c1COC/C2=C\c1ccc(F)cc1` [Cpd 31, (7Z)-1-(2,4-dichloro-phenyl)-7-(4-fluoro-benzylidene)-1,4,6,7-tetrahydro-pyrano[4,3-c]pyrazole-3-carboxylic acid [4-(2-hydroxy-ethyl)-piperazin-1-yl]-amide]: the inhibition at 0.2 µM at Cannabinoid CB1 Receptor (setting [1]) is 10%; at Cannabinoid CB2 Receptor it was 15%.

In turn, `C[C@@H](NC(=O)c1nn(-c2ccc(Cl)cc2Cl)c2c1COC/C2=C\c1cccs1)c1ccccc1` [Cpd 32, (7Z)-1-(2,4-dichloro-phenyl)-7-thiophen-2-ylmethylene-1,4,6,7-tetrahydro-pyrano[4,3-c]pyrazole-3-carboxylic acid [(R)-1-phenyl-ethyl]-amide] showed a pIC50 on Cannabinoid CB1 Receptor of 7.70. The inhibition at 0.2 µM amounted to 76% at Cannabinoid CB1 Receptor (setting [1]) and 11% at Cannabinoid CB2 Receptor.

On Cannabinoid CB1 Receptor, `C[C@@H](NC(=O)c1nn(-c2ccc(Cl)cc2Cl)c2c1COC/C2=C\c1cccs1)C1CCCCC1` [Cpd 33, (7Z)-1-(2,4-dichloro-phenyl)-7-thiophen-2-ylmethylene-1,4,6,7-tetrahydro-pyrano[4,3-c]pyrazole-3-carboxylic acid [(R)-1-cyclohexyl-ethyl]-amide] gave a pIC50 of 8.00. The results for the inhibition at 0.2 µM on Cannabinoid CB1 Receptor (setting [1]) and on Cannabinoid CB2 Receptor were 88% and 15%, respectively.

With `O=C(NN1CCCC1)c1nn(-c2ccc(Cl)cc2Cl)c2c1COC/C2=C\c1cccs1` [Cpd 34, (7Z)-1-(2,4-dichloro-phenyl)-7-thiophen-2-ylmethylene-1,4,6,7-tetrahydro-pyrano[4,3-c]pyrazole-3-carboxylic acid pyrrolidin-1-ylamide], the inhibition at 0.2 µM amounted to 54% on Cannabinoid CB1 Receptor (setting [1]) and 7% on Cannabinoid CB2 Receptor.

Regarding `O=C(NN1CCCCC1)c1nn(-c2ccc(Cl)cc2Cl)c2c1COC/C2=C\c1cccs1` [Cpd 35, (7Z)-1-(2,4-dichloro-phenyl)-7-thiophen-2-ylmethylene-1,4,6,7-tetrahydro-pyrano[4,3-c]pyrazole-3-carboxylic acid piperidin-1-ylamide], the inhibition at 0.2 µM on Cannabinoid CB1 Receptor (setting [1]) was 68%; on Cannabinoid CB2 Receptor, 12%.

`O=C(NN1CCCCCC1)c1nn(-c2ccc(Cl)cc2Cl)c2c1COC/C2=C\c1cccs1` [Cpd 36, (7Z)-1-(2,4-dichloro-phenyl)-7-thiophen-2-ylmethylene-1,4,6,7-tetrahydro-pyrano[4,3-c]pyrazole-3-carboxylic acid azepan-1-ylamide] had a pIC50 at Cannabinoid CB1 Receptor of 7.70. Moreover, the inhibition at 0.2 µM at Cannabinoid CB1 Receptor (setting [1]) was 84%; on Cannabinoid CB2 Receptor it was 16%.

`CC1CCCC(C)N1NC(=O)c1nn(-c2ccc(Cl)cc2Cl)c2c1COC/C2=C\c1cccs1` (stereo not drawn) [Cpd 37, (7Z)-1-(2,4-dichloro-phenyl)-7-thiophen-2-ylmethylene-1,4,6,7-tetrahydro-pyrano[4,3-c]pyrazole-3-carboxylic acid (2,6-dimethyl-piperidin-1-yl)-amide]: the inhibition at 0.2 µM came out at 61% at Cannabinoid CB1 Receptor (setting [1]) and 20% on Cannabinoid CB2 Receptor.

In turn, `O=C(NN1CC2CCCC2C1)c1nn(-c2ccc(Cl)cc2Cl)c2c1COC/C2=C\c1cccs1` (stereo not drawn) [Cpd 38, (7Z)-1-(2,4-dichloro-phenyl)-7-thiophen-2-ylmethylene-1,4,6,7-tetrahydro-pyrano[4,3-c]pyrazole-3-carboxylic acid (hexahydro-cyclopenta[c]pyrrol-2-yl)-amide] had a negative-log IC50 (pIC50) at Cannabinoid CB1 Receptor of 7.52. Besides, the inhibition at 0.2 µM on Cannabinoid CB1 Receptor (setting [1]) is 79%; at Cannabinoid CB2 Receptor, 16%.

Compound `C[C@@H](NC(=O)c1nn(-c2ccc(Cl)cc2Cl)c2c1COC/C2=C\c1ccsc1)C1CCCCC1` [Cpd 39, (7Z)-1-(2,4-dichloro-phenyl)-7-thiophen-3-ylmethylene-1,4,6,7-tetrahydro-pyrano[4,3-c]pyrazole-3-carboxylic acid [(R)-1-cyclohexyl-ethyl]-amide] showed a pIC50 at Cannabinoid CB1 Receptor of 7.70. Besides, the inhibition at 0.2 µM at Cannabinoid CB1 Receptor amounted to 84%; at Cannabinoid CB2 Receptor, 13%.

On to `C[C@@H](NC(=O)c1nn(-c2ccc(Cl)cc2Cl)c2c1COC/C2=C\c1ccsc1)c1ccccc1` [Cpd 40, (7Z)-1-(2,4-dichloro-phenyl)-7-thiophen-3-ylmethylene-1,4,6,7-tetrahydro-pyrano[4,3-c]pyrazole-3-carboxylic acid [(R)-1-phenyl-ethyl]-amide], for which, at Cannabinoid CB1 Receptor, the pIC50 was 8.00 and the inhibition at 0.2 µM came out at 84%. The inhibition at 0.2 µM at Cannabinoid CB2 Receptor is 21%.
